According to patent publication US8372973B2, “Prokineticin 1 receptor antagonists” (Janssen Pharmaceutica N.V., priority 2005, dated 2013):
Several values for one entry are separate records, joined by “and”; a condition that tells them apart may be missing. Identical values can stand only once. Entries after “also recorded” stand apart in the source; their conditions may differ. Like-named read-outs stand apart in the source and are kept apart here.

What was measured:
[1] = system: pro-secretory effect of carbachol; assay: Selectivity test against carbachol-evoked secretion in rat ileum mucosa, Ussing-type chambers
[2] = target: T1, PK1 receptor (Rattus norvegicus, UniProt Q8R416); assay: Suppression of PK1-evoked increase in Isc in isolated rat ileum mucosa, Ussing-type chambers; details: 1 μM test compound, 15 min; PK1 10 and 100 nM cumulative
T1 construct: The PK1 evoked increase in Isc requires the presence of endogenous PK1 receptors; from tissue; host or cells: isolated rat ileum mucosa
T1 sequence (Q8R416 whole entry): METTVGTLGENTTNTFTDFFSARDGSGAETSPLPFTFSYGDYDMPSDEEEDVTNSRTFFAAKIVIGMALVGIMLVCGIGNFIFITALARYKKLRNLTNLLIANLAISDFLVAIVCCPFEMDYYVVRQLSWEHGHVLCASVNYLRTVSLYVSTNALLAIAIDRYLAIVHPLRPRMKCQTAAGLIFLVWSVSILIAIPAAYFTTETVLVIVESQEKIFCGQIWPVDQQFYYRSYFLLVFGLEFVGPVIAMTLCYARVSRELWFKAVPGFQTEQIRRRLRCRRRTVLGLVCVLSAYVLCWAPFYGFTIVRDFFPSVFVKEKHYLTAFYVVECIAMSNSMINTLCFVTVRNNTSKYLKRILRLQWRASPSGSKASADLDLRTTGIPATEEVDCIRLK
Description: Methodology. The basic methodology for Ussing-type ion flux chambers used in these studies was the same as that described in detail above with the following modifications to the experimental protocol. […] The responses to two sequential EFS were used to gauge tissue viability and comparability of the responses of individual tissues from each rat and between rats. Tissue conductance was measured at periodic intervals as changes in the amplitudes of brief short-circuit current responses evoked by application of 1 mV amplitude bi-polar pulses from a pulse generator using Ohm's Law. Three to four tissues from each rat were studied. The tissues from a given animal were grouped and assigned accordingly: one control tissue which received only vehicle followed by two consecutive doses of PK-1 ligand added in a cumulative fashion to the basolateral surface of the tissue; the remaining two to three tissues from the same animal were assigned to be exposed to a given PK-1 receptor antagonist (e.g., 3-4 tissues from 1 rat: Control, Antagonist1, Antagonist2, and/or Antagonist3). Test compound was added to the basolateral tissue side reservoir at a final concentration of 1 μM and allowed a 15 minute incubation period prior to challenge with the PK1 peptide. […]

[3] = system: Cholera toxin stimulated gut secretion; design: species or system rat
[4] = target: T2, GPR73 (prokineticin 1 receptor) (Homo sapiens, UniProt Q8TCW9); assay: PK1 functional assay: Ca2+ mobilization on the FLIPR; format: cell-based; details: for inhibition at 10 µM: read-out: Ca^2+ Mobilization % Inh @10 μM; for IC50: HEK 293 GPR73 expressing cells, PK1 ligand preparation at its EC50, read-out: Ca^2+ Mobilization IC50
T2 construct: expressed in transfected cells; host or cells: HEK 293
T2 sequence (Q8TCW9 whole entry, species assumed): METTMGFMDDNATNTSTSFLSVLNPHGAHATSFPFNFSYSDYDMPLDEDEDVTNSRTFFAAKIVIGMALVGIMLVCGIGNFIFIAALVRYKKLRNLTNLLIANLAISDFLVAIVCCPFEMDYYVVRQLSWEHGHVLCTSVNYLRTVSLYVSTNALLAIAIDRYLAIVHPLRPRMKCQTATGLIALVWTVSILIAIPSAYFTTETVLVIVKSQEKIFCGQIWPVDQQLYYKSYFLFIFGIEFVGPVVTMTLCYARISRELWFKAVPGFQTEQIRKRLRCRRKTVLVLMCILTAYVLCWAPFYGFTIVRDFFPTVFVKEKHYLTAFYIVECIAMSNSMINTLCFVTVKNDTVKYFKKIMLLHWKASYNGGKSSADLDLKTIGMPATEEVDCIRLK
Description: At a time of 24 h prior to running the assay, in cell culture media (DMEM containing high Glucose and L-glutamine, 10% FBS, 1% Pen/Streptomycin, 1% Sodium Pyruvate, 20 mM HEPES, Zeocin 200 mg/L), […] of 1.3*10^6/ml HEK 293 GPR73 (prokineticin 1 receptor) expressing cells were plated in a 96 well poly-d-lysine coated plate (Costar), and incubated at 37° C. and 5% CO2. On the day in which the assay was run, the media was removed and […] of 5× Calcium Plus Dye (Molecular Devices) which was previously resuspended with 200 mL of assay buffer [HBSS w/Ca^2+ and Mg^2+ w/o phenol red, 20 mM HEPES, 0.1% BSA, 10 mL probenecid (710 mg probenecid in 5 mL of 1N NaOH, to which was then added 5 mL HBSS containing 20 mM HEPES)] was added to each well of the 96-well plate. The plate was incubated at 37° C. and 5% CO2 for 30 min in dark. The plate was removed and allowed to reach RT for 15 min in the dark. The assay was then run on the FLIPR. In Brief: base line read for 1 min, compound added (25 μL) and incubated for 4 min, 15 seconds, PK1 ligand preparation added (25 μL) for a final concentration of a previously determined EC50 and fluorescence was counted for 1 min, 45 seconds. Baseline is described as the amount of relative fluorescence read when buffer alone is added to cells. Baseline was subtracted from all wells. Percent of control was calculated as follows:
(Baseline subtracted well value is divided by baseline subtracted max value)*100. Percent inhibition is 100 minus the percent of control value.
The IC50 is defined as the amount of a given compound required to inhibit 50% of the maximum signal that is generated by the concentration of PK1 preparation used in our assay. IC50 values were calculated using GraphPad Prism.

[5] = system: ileum mucosal tissues from PK1 receptor knock-out mice; assay: PK1 effect on Isc in ileum mucosal tissues from PK1 receptor knock-out mice; details: exogenous PK1 peptide

Row | Molecule | inhibition at 10 µM ([4]; @10 μM compound) [%] | IC50 [4] | further results
1 | COc1ccc(Cn2c(NCc3cccnc3N)nc(=O)n(Cc3ccc(OC)cc3)c2=O)cc1 [Cpd 3, 6-[(2-Amino-pyridin-3-ylmethyl)-amino]-1,3-bis-(4-methoxy-benzyl)-1H-[1,3,5]triazine-2,4-dione] |  |  | suppression of the pro-secretory effect of carbachol (unrelated secretagogue) [1]: without inhibiting; suppression of the pro-secretory effect of carbachol (unrelated secretagogue) ([1]; two ascending cumulative carbachol concentrations, serosal side): without inhibiting; also recorded: failed to suppress; suppression of the PK1 evoked increase in Isc [2]: suppresses; also recorded: significant surmountable antagonism; suppression of Cholera toxin-evoked stimulation of gut secretion (in words) [3]: suppresses; suppression of the sustained increase in baseline Isc evoked by Cholera toxin [3]: 50-60%
2 | COc1ccc(Cn2c(NCc3cccnc3)nc(=O)n(Cc3ccc(OC)cc3)c2=O)cc1 [Cpd 40] | 83 | 557 nM | 
3 | COc1ccc(Cn2c(=O)nc(NCc3cnc(C)cc3C)n(Cc3ccc(OC(F)F)cc3)c2=O)cc1 [Cpd 96] | 92 |  | 
4 | COc1ccc(Cn2c(=O)nc(NCc3cnc(C)cc3C)n(Cc3ccccc3OC)c2=O)cc1 [Cpd 106] | 99 | 25 nM and 74 nM | Ca^2+ Mobilization % Inh @10 μM ([4]; @10 μM compound, 10 µM): 101%
5 | COc1ccccc1Cn1c(=O)nc(NCc2cnc(C)cc2C)n(Cc2ccc(OC(F)F)cc2)c1=O [Cpd 193] | 39 | > 10000 nM | 
6 | PK1: Recombinant human prokineticin-1 from HEK 293 cells, FLAG epitope cleaved; mixture of full-length ligand and four C-terminal residue truncated product (protein, mixture with C-terminal truncated product; Recombinant N-terminal FLAG-tagged human prokineticin-1 after enterokinase cleavage of Flag-tag) AVITGACERDVQCGAGTCCAISLWLRGLRMCTPLGREGEECHPGSHKVPFFRKRKHHTCPCLPNLLCSRFPDGRYRCSMDLKNINF |  |  | change in Isc compared to wild-type littermates [5]: failed to elicit a significant change
